Reference: US20140303092A1 (CHIMERIX, INC., priority 2011, published 2014)

Experiment: Study HDP-CDV-201: safety and tolerability (adverse events, laboratory abnormalities, discontinuations)
Format: in vivo, human (adult allogeneic HSCT recipients)
Description: Clinical Studies of HDP-CDV were performed and described in detail in the following Examples. For example, HDP-CDV-201 is a placebo-controlled, dose-escalating trial in HSCT CMV (R+) recipients, evaluating the ability of HDP-CDV to prevent or control CMV infection was carried out. Five cohorts were established in which participants or subjects received either placebo or the HDP-CDV orally, in doses ranging from 40 mg weekly (QW) to 200 mg twice weekly (BIW). Subjects who were post-HSCT were enrolled at the time of engraftment and randomized to HDP-CDV or placebo (3 to 1 ratio) and received blinded therapy until approximately 100 day post-transplantation. HDP-CDV doses were 40 mg QW, 100 mg QW, 200 mg QW, 200 mg BIW and 100 mg BIW. Escalation to the next dose was decided by the data monitoring committee after review of the safety data from the previous Cohort. Subjects who developed CMV disease or CMV infection requiring pre-emptive therapy with local standard of care were discontinued from blinded therapy and followed for 4 weeks. Subjects who completed treatment with blinded therapy were followed for 8 weeks post-therapy.
Data from Study HDP-CDV-201 also provided characterization of the safety and tolerability profile of HDP-CDV when administered for the prevention or control of CMV infection in high risk (R^+) post-HSCT adult subjects.
The Safety population (SAFETY) included all randomized subjects who took at least one dose of study treatment. This population was used to summarize safety outcomes based on the treatment actually received, in cases where a subject was treated contrary to the randomization schedule.
The safety and tolerability profile of HDP-CDV, including subject demographics and Baseline characteristics; the AE profile; and laboratory abnormalities of interest were analyzed in the cohorts followed in this investigation.
Subjects completing the treatment period received a full course of study medication; those completing the entire study attended visits through 8 weeks of follow up. Subjects who discontinued treatment may have done so for protocol specified reasons (e.g. development of clinically significant CMV infection requiring preemptive treatment with excluded anti-CMV medications) or for other reasons (e.g., withdrawal, adverse events, loss to follow-up). The disposition of subjects in Study HDP-CDV-201 during the double-blind, placebo-controlled treatment period (through Week 11) is listed by dosing Cohort in TABLE 23.
Adverse events were examined by severity to ensure that all safety signals were identified in this study population. Because of the frequency of events in HSCT recipients, particular attention was given to evaluation of Grade 3 […], 4 (severe), and 5 (fatal) adverse events.
Only those preferred terms for which at least one Grade 3 or higher event was experienced in any treatment group are listed. Cytomegalovirus-related AEs are excluded from this analysis.
HDP-CDV is a lipid conjugate of CDV. Because CDV is known to have adverse effects on renal function and bone marrow, decreased GFR and persistent neutropenia were identified as AEs of special interest. Key renal and hematological (TABLE 30) laboratory parameters were measured and listed below by Study HDP-CDV-201 treatment groups. TABLE 30 includes abnormal levels of serum creatinine, neutrophils, platelets, WBCs, and hemoglobin and includes data at Screening and during the treatment period.
A common metric for unit based dosing of medications is by weight (mg/kg). When the distribution of weights was examined for all subjects participating in the study, the median was 78 kg and the lower 25th percentile weight was approximately 65 kg, which translates to a cut-off of ˜3 mg/kg for a 200 mg total weekly dose. Based upon this approach, a cut-off of 3 mg/kg was used to assess the frequency of diarrhea and associated GI AEs reported for the subjects in Cohorts 3 or 4a (TABLE 40).

CCCCCCCCCCCCCCCCOCCCOP(=O)(O)COC(CO)Cn1ccc(N)nc1=O (stereo not drawn) [HDP-CDV]
11 (36.7%): TEAE Abdominal pain, Frequency (200 mg BIW)
8 (29.6%): Subjects Reporting Diarrhea as an AE (100 mg QW, n = 27)
6 (22.2%): TEAE Vomiting, Frequency (100 mg QW)
4 (14.8%): TEAE Neutropenia, Frequency (100 mg QW)
1 (3.7%): TEAE GGT Increased, Frequency (100 mg QW) | TEAE GGT Increased, Grade 2 (100 mg QW) | TEAE Hyperglycaemia, Frequency (100 mg QW) | TEAE Hyperglycaemia, Grade 3 (100 mg QW) | TEAE Hyperkalemia, Frequency (100 mg QW) | TEAE Hyperkalemia, Grade 3 (100 mg QW) | TEAE Hyponatraemia, Frequency (100 mg QW) | TEAE LFT Abnormal, Frequency (100 mg QW) | TEAE Nausea, Grade 2 (100 mg QW) | TEAE Neutropenia, Grade 2 (100 mg QW) | TEAE Neutropenia, Grade 4 (100 mg QW) | TEAE Pneumonia, Grade 3 (100 mg QW) | TEAE Pneumonia, Grade 4 (100 mg QW) | TEAE Pyrexia, Frequency (100 mg QW) | TEAE Staphylococcal Bacteremia, Frequency (100 mg QW) | TEAE Staphylococcal Bacteremia, Grade 3 (100 mg QW) | TEAE Thrombocytopenia, Grade 2 (100 mg QW) | TEAE Thrombocytopenia, Grade 3 (100 mg QW) | TEAE Thrombocytopenia, Grade 4 (100 mg QW)
7 (23.3%): TEAE AST increased, Frequency (200 mg BIW)
3 (11.1%): TEAE Thrombocytopenia, Frequency (100 mg QW)
3 (10.0%): TEAE AST increased, Grade 2 (200 mg BIW)
4 (13.3%): TEAE ALT increased, Grade 2 (200 mg BIW)
10 (33.3%): TEAE ALT increased, Frequency (200 mg BIW)
2 (6.7%): TEAE ALT increased, Grade 3 (200 mg BIW)
0: TEAE GGT Increased, Grade 3 (100 mg QW) | TEAE GGT Increased, Grade 4 (100 mg QW) | TEAE GGT Increased, Grade 5 (100 mg QW) | TEAE Generalized oedema, Frequency (100 mg QW) | TEAE Generalized oedema, Grade 2 (100 mg QW) | TEAE Generalized oedema, Grade 3 (100 mg QW) | TEAE Generalized oedema, Grade 4 (100 mg QW) | TEAE Generalized oedema, Grade 5 (100 mg QW) | TEAE Hyperbilirubinaemia, Frequency (100 mg QW) | TEAE Hyperbilirubinaemia, Grade 2 (100 mg QW) | TEAE Hyperbilirubinaemia, Grade 3 (100 mg QW) | TEAE Hyperbilirubinaemia, Grade 4 (100 mg QW) | TEAE Hyperbilirubinaemia, Grade 5 (100 mg QW) | TEAE Hyperglycaemia, Grade 2 (100 mg QW) | TEAE Hyperglycaemia, Grade 4 (100 mg QW) | TEAE Hyperglycaemia, Grade 5 (100 mg QW) | TEAE Hyperkalemia, Grade 2 (100 mg QW) | TEAE Hyperkalemia, Grade 4 (100 mg QW) | TEAE Hyperkalemia, Grade 5 (100 mg QW) | TEAE Hypocalcaemia, Frequency (100 mg QW) | TEAE Hypocalcaemia, Grade 2 (100 mg QW) | TEAE Hypocalcaemia, Grade 3 (100 mg QW) | TEAE Hypocalcaemia, Grade 4 (100 mg QW) | TEAE Hypocalcaemia, Grade 5 (100 mg QW) | TEAE Hypokalaemia, Grade 2 (100 mg QW) | TEAE Hypokalaemia, Grade 3 (100 mg QW) | TEAE Hypokalaemia, Grade 4 (100 mg QW) | TEAE Hypokalaemia, Grade 5 (100 mg QW) | TEAE Hyponatraemia, Grade 2 (100 mg QW) | TEAE Hyponatraemia, Grade 3 (100 mg QW) | TEAE Hyponatraemia, Grade 4 (100 mg QW) | TEAE Hyponatraemia, Grade 5 (100 mg QW) | TEAE LFT Abnormal, Grade 2 (100 mg QW) | TEAE LFT Abnormal, Grade 3 (100 mg QW) | TEAE LFT Abnormal, Grade 4 (100 mg QW) | TEAE LFT Abnormal, Grade 5 (100 mg QW) | TEAE Leukocytosis, Frequency (100 mg QW) | TEAE Leukocytosis, Grade 2 (100 mg QW) | TEAE Leukocytosis, Grade 3 (100 mg QW) | TEAE Leukocytosis, Grade 4 (100 mg QW) | TEAE Leukocytosis, Grade 5 (100 mg QW) | TEAE Nausea, Grade 3 (100 mg QW) | TEAE Nausea, Grade 4 (100 mg QW) | TEAE Nausea, Grade 5 (100 mg QW) | TEAE Neutropenia, Grade 5 (100 mg QW) | TEAE Pneumonia, Grade 2 (100 mg QW) | TEAE Pneumonia, Grade 5 (100 mg QW) | TEAE Pyrexia, Grade 2 (100 mg QW) | TEAE Pyrexia, Grade 3 (100 mg QW) | TEAE Pyrexia, Grade 4 (100 mg QW) | TEAE Pyrexia, Grade 5 (100 mg QW) | TEAE Renal Failure, Grade 3 (100 mg QW) | TEAE Renal Failure, Grade 4 (100 mg QW) | TEAE Renal Failure, Grade 5 (100 mg QW) | TEAE Staphylococcal Bacteremia, Grade 2 (100 mg QW) | TEAE Staphylococcal Bacteremia, Grade 4 (100 mg QW) | TEAE Staphylococcal Bacteremia, Grade 5 (100 mg QW) | TEAE Thrombocytopenia, Grade 5 (100 mg QW) | TEAE Vomiting, Grade 3 (100 mg QW) | TEAE Vomiting, Grade 4 (100 mg QW) | TEAE Vomiting, Grade 5 (100 mg QW) | TEAE ALT increased, Grade 4 (200 mg BIW) | TEAE ALT increased, Grade 5 (200 mg BIW) | TEAE AML, Recurrent, Frequency (200 mg BIW) | TEAE AML, Recurrent, Grade 2 (200 mg BIW) | TEAE AML, Recurrent, Grade 3 (200 mg BIW) | TEAE AML, Recurrent, Grade 4 (200 mg BIW) | TEAE AML, Recurrent, Grade 5 (200 mg BIW) | TEAE AST increased, Grade 3 (200 mg BIW) | TEAE AST increased, Grade 4 (200 mg BIW) | TEAE AST increased, Grade 5 (200 mg BIW)
8 (26.7%): TEAE Abdominal pain, Grade 2 (200 mg BIW)
0 Subject n (%): Discontinuation: Death (100 mg QW, active treatment period)
3 (11.1%) Subject n (%): Discontinuation: Adverse event (100 mg QW, active treatment period through Week 11)
5 (18.5%): TEAE Nausea, Frequency (100 mg QW)
33%: subjects who discontinued study medications (100 mg weekly)
2 (7.4%): TEAE Hypokalaemia, Frequency (100 mg QW) | TEAE Neutropenia, Grade 3 (100 mg QW) | TEAE Pneumonia, Frequency (100 mg QW) | TEAE Renal Failure, Frequency (100 mg QW) | TEAE Renal Failure, Grade 2 (100 mg QW) | TEAE Vomiting, Grade 2 (100 mg QW)
